According to US9284303B2, “Benzimidazole cannabinoid agonists bearing a substituted heterocyclic group” (priority 2006, dated 2016):
Counter-ions that a name gives are not always drawn.

Legend:
[1] = target: T1, human CB2 (hCB2) receptor (Homo sapiens, UniProt P34972); test: Inhibition of forskolin-activated cAMP production upon activation of hCB2 (HTRF), CHO-K1 cells; format: cell-based; details: for ratio CB2 agonism over CB1 agonism: Table C-1, selectivity hCB2 over hCB1; for EC50: hCB2-CHO-K1 cells, forskolin-activated cAMP, pEC50=-log(EC50), read-out: CB2 pEC50 (converted)
T1 construct: expressed in transfected cells; host or cells: CHO-K1
Method: (§1) Functional activity of the test compounds was assessed by measuring their potency to inhibit forskolin-activated cAMP production upon activation of the human CB1 (hCB1) or human CB2 (hCB2) receptor through homogenous time resolved fluorescence (HTRF) assays.
(§2) Before the experiments, medium was removed, cells were washed with PBS/EDTA (140 mM NaCl, 1 mM Naz-EDTA, 8 mM Na2HPO4.2H2O, 8.5 mM KH2PO4, 2.7 mM KCl, 21 mM glucose), resuspended in stimulation buffer (HBSS 1x, IBMX 1 mM, Hepes 5 mM, MgCl2 10 mM, BSA 0.1%, pH 7.4). Cells were diluted to a concentration of 8.10^5 cell/ml for hCB1 experiments and 10^6 cells/ml for hCB2 experiments. Assays were performed using the cAMP Dynamic HTRF kit (CIS bio international, France) according to the recommendations of the manufacturer.
Then, 20 μl of the diluted hCB2-CHO-K1 cells was added (20,000 cells/well). After 30 minutes incubation in dark at room temperature, 10 μl cAMP-XL665 and 10 μl anti-cAMP cryptate (both at a final dilution of 1/100) was added to the cells.

[2] = target: T2, human CB1 (hCB1) receptor (Homo sapiens, UniProt P21554); test: Inhibition of forskolin-activated cAMP production upon activation of hCB1 (HTRF), CHO-K1 cells; format: cell-based; details: CB1 pEC50, hCB1-CHO-K1 cells, forskolin-activated cAMP, pEC50=-log(EC50)
T2 construct: expressed in transfected cells; host or cells: CHO-K1
Method: as §1
as §2, with “CHO-K1 cells stably transfected with either hCB1 or hCB2 were grown up to 80-90% confluence in T175 Falcon flasks in DMEM/NUT MIX F-12 culture medium complemented with 2% Solution A (5.10^6 IU/l penicillin G, 5 g/l streptomycin sulphate, 5.5 g/l pyruvate, 14.6 g/l L-glutamine, 1M NaOH) and 10% foetal calf serum. Before” for “Before”
For CB1, each well of a 96 flat bottom black polystyrene assay plate (Costar) was filled with 25 μl stimulation buffer containing 6 μM forskolin and either test compound (in 2% DMSO), 2% DMSO or 2 μM CP55490 (in 2% DMSO). Then, 25 μl of the diluted cells was added (20,000 cells/well). After 30 minutes incubation in dark at room temperature, 25 μl cAMP-XL665 and 25 μl anti-cAMP cryptate (both at a final dilution of 1/80) was added to the cells.
After equilibration of the reaction mixtures for 1 to 24 hours in dark at room temperature, fluorescence was measured at 665 nm and 620 nm using a Discovery microplate fluorescence counter (Perkin Elmer), and the signal ratio of 665 nm/620 nm was calculated. The signal ratios of the test compounds were expressed relative to the signal ratios of the DMSO control (maximal signal ratio, no inhibition of cAMP) and CP55490 or WIN55212-2 for hCB1 and hCB2, respectively (minimal signal ratio, maximal inhibition of cAMP). From the dose response curves generated for each test compound, the dose at which 50% of the maximal inhibition of cAMP level is observed (EC50, expressed in the Tables as pEC50=−log(EC50) values) and the level of inhibition reached with 10 μM of the test compound compared to CP55490 (for hCB1) or WIN55212-2 (for hCB2) was calculated.

T1 sequence (P34972 whole entry): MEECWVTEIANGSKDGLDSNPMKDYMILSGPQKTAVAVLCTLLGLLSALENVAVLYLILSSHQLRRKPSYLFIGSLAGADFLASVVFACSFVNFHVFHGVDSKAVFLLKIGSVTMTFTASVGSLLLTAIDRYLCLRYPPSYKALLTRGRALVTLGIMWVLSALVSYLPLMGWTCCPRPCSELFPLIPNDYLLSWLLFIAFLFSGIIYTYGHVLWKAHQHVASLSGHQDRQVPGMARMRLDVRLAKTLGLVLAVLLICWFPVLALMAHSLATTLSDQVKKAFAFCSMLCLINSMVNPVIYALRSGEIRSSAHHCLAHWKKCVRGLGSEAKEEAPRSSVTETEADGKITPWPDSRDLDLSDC
T2 sequence (P21554 whole entry): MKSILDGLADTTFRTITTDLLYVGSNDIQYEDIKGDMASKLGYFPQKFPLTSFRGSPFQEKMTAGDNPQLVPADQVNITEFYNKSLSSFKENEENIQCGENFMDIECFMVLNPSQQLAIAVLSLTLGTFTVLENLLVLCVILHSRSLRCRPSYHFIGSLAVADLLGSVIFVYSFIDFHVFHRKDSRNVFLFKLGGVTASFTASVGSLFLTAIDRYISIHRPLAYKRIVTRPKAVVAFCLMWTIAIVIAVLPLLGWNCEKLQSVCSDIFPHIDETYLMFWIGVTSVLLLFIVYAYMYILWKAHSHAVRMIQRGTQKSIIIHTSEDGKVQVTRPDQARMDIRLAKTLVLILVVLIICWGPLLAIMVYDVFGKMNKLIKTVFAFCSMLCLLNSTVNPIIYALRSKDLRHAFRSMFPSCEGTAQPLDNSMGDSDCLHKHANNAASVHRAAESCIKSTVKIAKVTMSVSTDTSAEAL

| Structure (SMILES) | melting point [°C] | ratio CB2 agonism over CB1 agonism [1] | EC50 [1] [nM] | EC50 [2] [nM] |
| --- | --- | --- | --- | --- |
| CC(=O)N1CCC(Cn2c(C(C)(C)C)nc3cc(S(=O)(=O)c4ccnc(F)c4)ccc32)CC1 | 193.9 | – | – | – |
| CC(C)(C)c1nc2cc(S(=O)(=O)c3ccnc(F)c3)ccc2n1CCCC(F)(F)F | 138.9 | – | – | – |
| CC(C)(C)c1nc2cc(S(=O)(=O)c3ncc(C#N)s3)ccc2n1CCCC(F)(F)F | 122 | – | – | – |
| CC(C)(C)c1nc2cc(S(=O)(=O)c3ccnc(O)c3)ccc2n1CCCC(F)(F)F | 277.5 | – | – | – |
| CCOc1cc(S(=O)(=O)c2ccc3c(c2)nc(C(C)(C)C)n3CCCC(F)(F)F)ccn1 | 137.7 | – | – | – |
| CC(C)(C)c1nc2cc(S(=O)(=O)c3ccc(C#N)s3)ccc2n1CC1CCOCC1 | 156 | – | – | – |
| CC(O)c1ccc(S(=O)(=O)c2ccc3c(c2)nc(C(C)(C)C)n3CC2CCOCC2)s1 (stereo not drawn) | 192 | – | – | – |
| CC(C)(C)c1nc2cc(S(=O)(=O)c3ccc(S(N)(=O)=O)s3)ccc2n1CC1CCOCC1 | 259 | – | – | – |
| CC(C)(C)c1nc2cc(S(=O)(=O)c3ccnc(F)c3)ccc2n1CC1CCC1 (as salt: HCl) (hydrate or solvate) [Co. No. 136] | 184.3 | – | – | – |
| CC(C)(C)c1nc2cc(S(=O)(=O)c3ccc(S(N)(=O)=O)s3)ccc2n1CC1CCOCC1 (as salt: HCl) [Co. No. 47] | 255 to 260 | – | – | – |
| CC(C)(C)c1nc2cc(S(=O)(=O)c3ccc(S(C)(=O)=O)s3)ccc2n1CC1CCOCC1 (as salt: HCl) [Co. No. 58] | 224 | – | – | – |
| CC(C)(C)c1nc2cc(S(=O)(=O)c3ccc(C(=O)N4CCCC4)o3)ccc2n1CC1CCOCC1 (as salt: HCl) [Co. No. 74] | 108.5 | – | – | – |
| CC(C)(C)c1nc2cc(S(=O)(=O)c3ccnc(C#N)c3)ccc2n1CC1CCOCC1 (as salt: methanesulfonate) [Co. No. 93] | 215.7 | – | – | – |
| CC(C)(C)c1nc2cc(S(=O)(=O)c3cccc(C(F)(F)F)n3)ccc2n1CC1CCOCC1 [Co. No. 110] | – | 1905 | 0.55 | 1050 |
| COc1ncc(S(=O)(=O)c2ccc3c(c2)nc(C(C)(C)C)n3CC2CCOCC2)cn1 [Co. No. 111] | – | 372 | 1.15 | 427 |
| CC(C)(C)c1nc2cc(S(=O)(=O)c3ccnc(F)c3)ccc2n1CC1CCCCO1 (stereo not drawn) [Co. No. 113] | – | 302 | 2.63 | 794 |
| COc1c[n+]([O-])ccc1S(=O)(=O)c1ccc2c(c1)nc(C(C)(C)C)n2CC1CCOCC1 [Co. No. 115] | – | – | 3.72 | 3630 |
| CC(C)(C)c1nc2cc(S(=O)(=O)c3ccc(CN)nc3)ccc2n1CC1CCOCC1 [Co. No. 116] | – | 966 | 5.89 | 5750 |
| CC(C)(C)c1nc2cc(S(=O)(=O)c3ccnc(C(F)(F)F)c3)ccc2n1CC1CCOCC1 [Co. No. 119] | – | >1413 | 7.08 | > 10000 |
| COc1cc(S(=O)(=O)c2ccc3c(c2)nc(C(C)(C)C)n3CC2CCC(F)(F)CC2)ccn1 [Co. No. 122] | – | 102 | 0.977 | 100 |
